# Measured values: patent US7897626B2, “2-substituted thiazole-4-carboxamide derivatives, their preparation and use as pharmaceuticals” (Bayer Schering Pharma AG, priority 2007, dated 2011)
# System: TLR7
# Assay: TLR-induced cytokine release (TNF-alpha) in human PBMC, TLR7 ligand stimulation
# Type: cell-based
# Details: human PBMC incubated 18 hours with test substance and TLR7 ligand; TNF-alpha in supernatant by ELISA; read-out: EC50 (TNF-α TLR7)
# Procedure: TLR-Induced Cytokine Release in Human “Peripheral Blood Mononuclear Cells” (PBMC)
# PBMCs isolated from human whole blood are stimulated using a TLR ligand.
# The cytokine determination is carried out by means of ELISA kits; a proliferation/cell metabolism determination is carried out using Alamar Blue.
# For the cell preparation, about 200 ml of blood are treated with an anticoagulant (e.g. citrate Monovettes). Per Leucosep tube, 15 ml of Histopaque (room temperature, RT) are poured in and forced downwards through the inserted frit by brief initial centrifugation (one minute at 1000×g, RT). 20 ml of blood are added to the tubes prepared in this way and centrifuged at 800×g for 15 minutes (RT). After centrifugation, the following layered arrangement results from the top to the bottom:
# plasma-PBMC-Histopaque-filter disc-Histopaque-erythrocytes and granulocytes. The supernatant plasma is aspirated. The PBMC are transferred together with the underlying Histopaque to a new 50 ml tube, the contents of two Leucosep tubes always being added to one 50 ml tube. The 50 ml tubes are then filled to 50 ml with PBS. This cell suspension is centrifuged at 300×g (RT) for 10 minutes.
# The liquid supernatant is tipped off and the cell pellet is resuspended with a little PBS and subsequently filled to 50 ml with PBS. This washing step is repeated twice. The resulting pellet is taken up in a defined volume of medium (with additives). For the testing of the substances, PBMC are incubated for 18 hours with titrated concentrations of the test substances, e.g. in the presence or absence of TLR7 or TLR9 ligands. On the next day, the supernatants are investigated for the content of TNF-alpha or other cytokines or chemokines by means of specific ELISA. The metabolic activity of the treated cells is determined with the aid of Alamar Blue.
row,Structure (SMILES),EC50 [nM]
1,"Cn1cc(NC(=O)c2csc(-c3cn[nH]c3)n2)c(C(N)=O)n1 [Example 1, 2-(1H-Pyrazol-4-yl)thiazole-4-(3-carbamoyl-1-methyl-1H-pyrazol-4-yl)-carboxamide]",50
2,"Cc1cc(-c2nc(C(=O)Nc3ccccc3C(N)=O)cs2)cs1 [Example 2, N-[2-(Aminocarbonyl)phenyl]-2-(5-methyl-3-thienyl)-4-thiazole-carboxamide]",3800
3,"Cc1ccc(C(N)=O)c(NC(=O)c2csc(-c3cn[nH]c3)n2)c1 [Example 3, N-[2-(Aminocarbonyl)-5-methylphenyl]-2-(1H-pyrazol-4-yl)thiazole-4-carboxamide]",120
